Measured values as given in patent US20190256491A1, “Methods For Treatment Of 16P11.2 Microdeletion Syndrome” (Massachusetts Institute of Technology, priority 2012, published 2019).
Entries after “also recorded” stand apart in the source; their conditions may differ.

Columns and labels:
[1] = test system: mGluR-LTD at the Schaffer collateral-CA1 synapse of hippocampal slices; experiment: DHPG-LTD, hippocampal slice electrophysiology; design: species or system mouse; settings: CHX 60 μM, 40 min, DHPG 50 μM, 5 min
Experimental: (§1) Electrophysiological experiments were performed at the Schaffer collateral-CA1 synapse of hippocampal slices prepared from p28 to p35 male mice using experimental protocols as previously described ((Auerbach et al., 2011)). Dorsal hippocampal slices (400 μm thick) were used in all recordings. Input-output functions were determined by incrementally (10 μA to 100 μA) stimulating the Schaffer collaterals and recording the resulting fEPSP response. Paired-pulse facilitation was conducted by applying two stimulus pulses at varying inter-stimulus-intervals (ISI). Facilitation was measured by taking the ratio of the fEPSP slope in response to stimulus 2 to that of stimulus 1. […] For paired-pulse low frequency stimulation (PP-LFS) slices were incubated in ACSF containing APV (50 μM)±CHX for 30 min. mGluR5-LTD was then induced by application (20 min) of paired-pulse stimulation (50 ms ISI) at 1 Hz, and synaptic responses were recorded for an additional 60 min.
(§2) Group I mGluR mediated synaptic plasticity was assessed. mGluR-LTD can be induced either by chemical induction by pharmacological stimulation of mGluRs (DHPG-LTD) or electrical induction by applying a series of paired pulses at about 50 ms interval (PP-LFS-LTD). […]

[2] = test system: mGluR5-LTD at the Schaffer collateral-CA1 synapse of hippocampal slices; experiment: PP-LFS LTD, hippocampal slice electrophysiology; design: species or system mouse; settings: ACSF with APV 50 μM ± CHX 30 min
Experimental: as §1, §2

[3] = test system: chr7qF3 mutant mice (mouse model of human chr16p11.2 microdeletion) and WT mice; experiment: Inhibitory avoidance extinction (IAE) test; type: in vivo
Experimental: Inhibitory avoidance extinction (IAE) tests were performed as previously described with modification ((Dolen et al., 2007)). Briefly, 4-6 weeks male mice were divided into four groups according to genotype and CTEP treatment: WT+vehicle, WT+CTEP, Mutant+vehicle, and Mutant+CTEP. CTEP or vehicle was administered by oral gavage every other day for 4 weeks. The last dose was given about 16-20 hours prior to the training session. IA tests were conducted in a two-chambered Perspex box consisting of a lighted side and a dark side separated by a trap door. On the training day, mice were habituated in the behavioral room for about 2 hours before training. During training, a mouse was placed into the lit side of the chamber and allowed to explore for about 30 seconds before the trap door was opened. The ensuing time spent by the animal in the light chamber before entering the dark chamber was recorded as latency. Immediately after fully entering the dark side of the camber, subjects were given about a 2 sec mild foot shock (about 0.4 mA) and allowed to spend an additional 60 sec before being returned to their home-cage. The acquisition and expression of fear memory was tested at about 6, about 24, and about 48 hours post training. The testing protocol used was the same as the training protocol. Latencies to enter the dark side of the chamber were recorded and used as measurement of IAE performance. Statistical significance was determined using two-way ANOVA and post hoc Student's t-tests.
Mice were evaluated in another hippocampus-associated behavioral paradigm: inhibitory avoidance (IA). IA is a multi-phase test used to assay memory formation and extinction. During the training session (0 hr), mice were placed in the light chamber of a two-chamber box. After a variable latency in the light side, they entered the dark side of the box where about a 2 sec foot-shock was delivered. Acquisition and extinction of the fear memory, as measured by the latency to re-enter the dark chamber from the lighted side, was tested 6 hr (acquisition) as well as about 24 hr and about 48 hr (extinction) after training. Experiments were conducted to determine: (1) if chr7qF3 mice had deficits similar to Fmrl KO mice in the IA test, and (2) if deficits were present, could the mGluR5 inhibitor CTEP treatment ameliorate them. Mice were divided into four groups: WT+vehicle, WT+CTEP, Mut+vehicle, and Mut+CTEP. CTEP was given by the same dosing regime previously used with Fmrl KO mice ((Michalon et al., 2012)).

[4] = test system: pre-synaptic glutamate release, Schaffer collateral-CA1 synapse of hippocampal slices; experiment: Paired-pulse facilitation at beginning and end of DHPG-LTD experiment; design: species or system mouse; settings: both WT and mutant slices; independent of CHX treatment
Experimental: as §1
To test whether the difference in CHX sensitivity between WT and mutant slices was due to a different pre-synaptic response to either DHPG treatment or PP-LFS induction, paired pulse facilitation at the beginning and end of DHPG-LTD experiment (FIGS. 2C and 2D) was assessed. […]

C[C@@H]1C[C@@H]([C@H](O)CC2CC(=O)NC(=O)C2)C(=O)[C@@H](C)C1 [CHX, Cycloheximide]
effect on DHPG-induced LTD ([1]; WT slices): significantly blocked | effect on DHPG-induced LTD ([1]; chr7qF3 mutant slices): no effect; also recorded: remains unaffected | effect on PP-LFS LTD ([2]; WT slices): almost completely blocked | effect on PP-LFS LTD ([2]; chr7qF3 mutant slices): no effect; also recorded: remains unaffected

Cc1nc(C#Cc2ccnc(Cl)c2)c(C)n1-c1ccc(OC(F)(F)F)cc1 [CTEP, 2-chloro-4-((2,5-dimethyl-1-(4-(trifluoromethoxy)phenyl)-1H-imidazol-4-yl)ethynyl)pyridine]
latency to re-enter the chamber ([3]; Chr7qF3 mutant mice, 6, 24 and 48 hours post training, chronic oral gavage every other day for 4 weeks): significantly lengthens | extinction of fear memory at 48 hr ([3]; Mut+CTEP, similar to the two wildtype groups): significant extinction | latency to re-enter the dark chamber at 6 hr (acquisition) ([3]; Mut+CTEP, to a level comparable to WT+vehicle mice): dramatically lengthened | effect on latency to re-enter the chamber ([3]; WT mice, WT+CTEP vs WT+vehicle): no effect | extinction of fear memory at 48 hr ([3]; WT+CTEP): exhibited extinction | cognitive impairment / fear memory deficits in IAE test ([3]; chr7qF3 mutant mice, chronic oral treatment): significantly ameliorates; also recorded: ameliorated

N[C@H](C(=O)O)c1cc(O)cc(O)c1 [DHPG, S-3,5-dihydrozyphenylglycine]
paired pulse facilitation after DHPG treatment [4]: increased paired pulse facilitation
